Laboratory results published in US12577267B2, “Pyrimidine compounds for use as MAP4K1 inhibitors” (GLENMARK SPECIALITY S.A., priority 2021, dated 2026).
pIC50: −log10 of the molar value. Counter-ions that a name gives are not always drawn. Like-named read-outs stand apart in the source and are kept apart here.

Assays:
MAP4K-1 enzyme = MAP4K-1 enzyme (Homo sapiens, UniProt Q92918); assay: FRET one step binding assay (tracer displacement)
Summary of the method: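 TR-FRET tracer-displacement binding with 5 nM GST-tagged MAP4K-1 and 2 nM Eu-anti-GST antibody in 50 mM HEPES pH 7.5, 10 mM MgCl2, 1 mM EGTA, 0.01% Brij-35, 3% DMSO final. Compound pre-incubated 15 min on ice, then 1 h at room temperature after tracer addition. IC50 from nonlinear regression of percent-of-control dose-response.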

CT26 tumor = assay: Anti-tumor efficacy on a syngeneic mouse colon tumor model of CT26; format: in vivo, BALB/c mice
Method: Evaluation of Anti-Tumor Efficacy of Example 2 and Example 30 on a Syngeneic Mouse Colon Tumor Model of CT26.
Healthy female BALB/c mice (7 to 9 weeks old and 15 to […]) were obtained from Glenmark animal facility. Animals were group housed in polypropylene cages at a controlled temperature of 20-22° C. with a light/dark cycle of 12/12 hours. They were maintained on an ad lib standard mouse pellet diet and water and all animal experiments were performed as per protocols approved by the Institutional Animal Ethics Committee (IAEC).
CT-26 cell line was obtained from American type culture (ATCC® CRL-2638™). Cells were revived in T-flask (passage 5) with complete RPMI-1640 media and incubated at 37° C. in 5% CO2, 80% relative humidity. Cells were re-suspended, pooled and split into 1:10 ratio per flask, maintained for 3 passages and passage 8 was used for cell inoculation into animals.
The right flank region of mice was shaved by electronic shaver. Required number of CT26 cells (10 million per mL of serum free media) received on ice from cell culture lab. The mice were anesthetized by isoflurane with O2 (oxygen flow meter to 1-2 liter/min and turn isoflurane vaporizer dial to 2-3%). The cells were inoculated into the right flank region of mice at cell concentration of 1 million cells/100 μL/mouse. The inoculated mice were housed in the animal room with daily observation for any undue clinical signs.
On day 10 after cell inoculation, mice were randomized based on tumor volume and grouped into different treatment groups. The mice with tumor volume range of 57 mm^3 to 119 mm^3 were included in efficacy study. Tumor volume was measured using digital vernier caliper.
The volume calculations were obtained using the formula V(mm^3)=[L×(W×W)]×0.52 • V is tumor volume, L is tumor length and W is tumor width
Compound Preparation and Administration
0.5% v/v Tween 80 and 0.5% w/v Methyl Cellulose in distilled water was used as vehicle for oral formulation. Example 2 and Example 30 were weighed and a stock suspension of 50 mg/kg/10 mL was prepared in a mortar and pestle by adding Tween 80 (0.5% v/v), Methyl cellulose (MC, 0.5% w/v). […] The body weights were recorded on daily basis and the dosing time was maintained throughout the study. […]
Tumor volume was measured in a blinded manner throughout the study. […] The % TGI was calculated by following the formula: [1−{(Tt−T0)/(Ct−C0)}]×100. • Tt=Tumor volume of treatment group on day of tumor volume • T0=Tumor volume of treatment group on day of randomization • Ct=Tumor volume of vehicle control group on day of tumor volume • C0=Tumor volume of control group on day of randomization Sacrifice Plan […]
Tumor volume data was statistically analyzed using Two-way ANOVA followed by Bonferroni's Multiple Comparison Test. […]

MAP4K-1 enzyme, sequence (Q92918 whole entry): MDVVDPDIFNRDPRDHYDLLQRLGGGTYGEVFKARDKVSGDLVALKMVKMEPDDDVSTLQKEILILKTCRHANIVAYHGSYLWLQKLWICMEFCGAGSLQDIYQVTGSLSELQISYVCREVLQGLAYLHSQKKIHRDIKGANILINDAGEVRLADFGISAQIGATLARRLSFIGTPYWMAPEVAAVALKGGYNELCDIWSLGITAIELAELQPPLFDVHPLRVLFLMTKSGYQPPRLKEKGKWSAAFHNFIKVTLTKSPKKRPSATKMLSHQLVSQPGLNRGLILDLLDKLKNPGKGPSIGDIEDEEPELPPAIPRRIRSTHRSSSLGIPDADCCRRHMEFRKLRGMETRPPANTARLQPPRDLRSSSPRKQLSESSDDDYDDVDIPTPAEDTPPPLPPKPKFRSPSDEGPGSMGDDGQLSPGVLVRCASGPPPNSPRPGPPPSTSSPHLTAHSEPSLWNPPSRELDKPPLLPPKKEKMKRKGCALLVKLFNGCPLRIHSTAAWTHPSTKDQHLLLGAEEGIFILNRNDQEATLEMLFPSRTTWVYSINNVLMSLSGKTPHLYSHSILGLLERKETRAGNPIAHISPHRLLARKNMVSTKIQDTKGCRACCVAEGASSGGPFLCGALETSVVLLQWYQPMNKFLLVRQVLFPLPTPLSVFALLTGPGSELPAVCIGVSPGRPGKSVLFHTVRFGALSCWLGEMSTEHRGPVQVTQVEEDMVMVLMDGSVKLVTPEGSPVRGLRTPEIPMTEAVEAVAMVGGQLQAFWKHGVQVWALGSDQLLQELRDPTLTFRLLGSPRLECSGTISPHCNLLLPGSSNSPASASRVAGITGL

Q: How did the pIC50 (MAP4K-1 enzyme) turn out when `COc1cc2c(cc1Nc1ncc(Cl)c(Nc3ccc(OS(=O)(=O)F)cc3P(C)(C)=O)n1)C(C)N(C)CC2` (single isomer, unassigned; isomer 2) [Example 30, 4-((5-Chloro-2-((6-methoxy-1,2-dimethyl-1,2,3,4-tetrahydroisoquinolin-7-yl)amino)pyrimidin-4-yl)amino)-3-(dimethylphosphoryl)phenyl sulfofluoridate dihydrochloride (Isomer 2)] was run?
A: > 7.30

Q: And the “% Inhibition at 1 μM” value (MAP4K-1 enzyme; 1 μM compound, 1 µM)?
A: 79.12%

Q: And the “% Inhibition at 10 μM” value (MAP4K-1 enzyme; 10 μM compound, 10 µM)?
A: 82.70%

Q: What about the “Tumor growth inhibition (TGI)” value (CT26 tumor; 10 mg/kg p.o. QD, day 25, vs vehicle group) of the same molecule?
A: 37%

Q: And the “Tumor growth inhibition (TGI)” value (CT26 tumor; 50 mg/kg p.o. QD, day 25, vs vehicle group)?
A: 62%

Q: `COc1cc2c(cc1Nc1ncc(Cl)c(Nc3ccc(OS(=O)(=O)F)cc3P(C)(C)=O)n1)CN(C)CC2` [Example 2, 4-((5-chloro-2-((6-methoxy-2-methyl-1,2,3,4-tetrahydroisoquinolin-7-yl)amino)pyrimidin-4-yl)amino)-3-(dimethylphosphoryl)phenyl sulfofluoridate dihydrochloride] was tested. Which inhibition at 1 µM (MAP4K-1 enzyme; 1 μM compound) did it give?
A: 86%

Q: And the inhibition at 10 µM (MAP4K-1 enzyme; 10 μM compound)?
A: 82.1%

Q: What about the IC50 (MAP4K-1 enzyme; IC50 (nM)) of the same molecule?
A: < 50 nM

Q: What about the “Tumor growth inhibition (TGI)” value (CT26 tumor; 10 mg/kg p.o. QD, day 24, vs vehicle group) of the same molecule?
A: 40%

Q: What about the “Tumor growth inhibition (TGI)” value (CT26 tumor; 50 mg/kg p.o. QD, day 24, vs vehicle group) of the same molecule?
A: 61%
